# Source: patent US20090263838A1, “Method for determining a lung cancer treatment and method for determining the effectiveness of an agent for treatment of lung cancer” (Sanko Junyaku Co., Ltd., priority 2008, published 2009)
# Where two headings read alike, the source gives them in different places.
# Tested on: non-small cell lung cancer (NSCLC) patients
# Procedure: Potential factors linked to survival such as age, gender, performance status, smoking history, tumor histology, number of prior chemotherapy regimen, and presence of distant metastasis were also reviewed for each patient. Pretreatment interstitial lung disease was diagnosed using a high resolution computed tomography scan of the chest by diagnostic radiologists blinded to any clinical information.
# The tumor response was assessed as complete response (CR), partial response (PR), no change (NC), or progressive disease (PD) according to the World Health Organization Criteria.
# The cut-off level of KL-6 was set at 500 U/ml based on the levels of healthy individuals as reported previously.
# Genomic DNAs were extracted from frozen or paraffin embedded specimens and the mutational status of the EGFR tyrosine kinase domain (through exons 18 to 21) was examined by the direct sequence method as described previously. In brief, the PCR amplification for extracted DNAs was done using HotStarTaq DNA polymerase (Qiagen Inc., Valencia, Calif.) with the specific primers and PCR conditions. PCR products were incubated using ExoSAP-IT (Amersham Biosciences Corp., Piscataway, N.J.) and then it was sequenced directly using the Applied Biosystems PRISM dye terminator cycle sequencing method (Perkin-Elmer Corp., Foster City, Calif.) with ABI PRISM 3100 Genetic Analyzer (Applied Biosystems, Foster City, Calif.).
# The associations between various clinical factors were evaluated using either the χ^2 test or the Fisher's exact test. […] The progression-free and overall survival times were both calculated using the Kaplan-Meier method; different groups were compared using the log-rank test. Associations of various factors with survival were evaluated using the backward stepwise Cox regression analysis. Differences were considered to be statistically significant if the p value was less than 0.05.
# [1] = patients with elevated KL-6 (≧500 U/ml)
# [2] = patients with normal range of KL-6
smiles,measurement,setting,value
COc1cc2ncnc(Nc3ccc(F)c(Cl)c3)c2cc1OCCCN1CCOCC1 [gefitinib],"complete response (CR), number of patients",all 41 NSCLC patients,One
same,early discontinuance of gefitinib (less than 2 weeks) because of rapid tumor progression,all 41 NSCLC patients,3 (7%) patients
same,"no change (NC), number of patients",all 41 NSCLC patients,20 patients
same,"partial response (PR), number of patients",all 41 NSCLC patients,ten
same,"progressive disease (PD), number of patients",all 41 NSCLC patients,10 patients
same,overall objective response rate,"all 41 NSCLC patients, gefitinib 250 mg daily oral, WHO criteria",26.8%
same,1-year survival rate,all 41 patients,61.0%
same,2-year survival rate,all 41 patients,29.8%
same,median overall survival time,all 41 patients,13.9 months
same,median progression-free survival time,all 41 patients,4.7 months
same,severe interstitial lung disease or treatment-related death due to gefitinib treatment,"all 41 patients, during the study period",neither severe interstitial lung disease nor treatment-related death occurred
same,overall survival,patients with an EGFR mutation,17.8 months
same,median overall survival time,[1],8.5 months
same,median progression-free survival time,[1],2.1 months
same,response to gefitinib,patients with elevated serum KL-6 levels (≧500 U/ml),23%
same,median overall survival time,[2],21.1 months
same,median progression-free survival time,[2],5.8 months
same,overall survival,patients with wild-type EGFR,8.5 months
same,median survival time,patients with wild-type EGFR and elevated serum KL-6,6.5 months
same,median survival time,patients with wild-type EGFR and normal range of KL-6,13.3 months
same,response to gefitinib,patients without elevated serum KL-6 levels,32%
